Test results published in ChEMBL document CHEMBL1641533, “A facile, click chemistry-based approach to assembling fluorescent chemosensors for protein tyrosine kinases” (Bioorg Med Chem Lett, 2011).
Values belong to the compound of their own block, whether it stands above or below them. Activity calls are given as the source filed them. No cut-off for these calls is given here. Starred links: 1 amine or outer side, 2 acyl side, 3 side chain; linkers in the order of their positions; H or OH if unused. Non-standard residues stand in square brackets, D forms with d. Residues, ends and D or L forms follow the SMILES beside them. X2 = CCN1C(=O)c2cccc3c(-n4cc(C[C@H](N[*:1])C(=O)[*:2])nn4)ccc(c23)C1=O; X1 = O=C([C@H](Cc1cn(-c2ccc3ccc4cccc5ccc2c3c45)nn1)N[*:1])[*:2]; X5 = Cc1cc(=O)[nH]c2cc(-n3cc(C[C@H](N[*:1])C(=O)[*:2])nn3)ccc12; X4 = O=C([C@H](Cc1cn(-c2cc3ccc(O)cc3oc2=O)nn1)N[*:1])[*:2]; X3 = O=C([C@H](Cc1cn(-c2cccc3ccccc23)nn1)N[*:1])[*:2]

Experiments:
[1] = molecular target: Tyrosine-protein kinase Lyn (Homo sapiens) (UniProt P07948); experiment: Binding affinity to Lyn assessed as increase of fluorescence after 60 mins relative to control
[2] = molecular target: Tyrosine-protein kinase Lyn (Homo sapiens) (UniProt P07948); experiment: Binding affinity to Lyn assessed as increase of fluorescence after 60 mins by HPLC analysis
[3] = molecular target: Tyrosine-protein kinase Lyn (Homo sapiens) (UniProt P07948); experiment: Binding affinity to Lyn in human K562 CML cells assessed as increase of fluorescence; type: cell-based; conditions: TDE = time-dependent effect
[4] = molecular target: Tyrosine-protein kinase Lyn (Homo sapiens) (UniProt P07948); experiment: Binding affinity to Lyn in human K562 CML cells assessed as increase of fluorescence after 60 mins in presence of SFK inhibitor SU6656; type: cell-based
[5] = molecular target: Tyrosine-protein kinase Lyn (Homo sapiens) (UniProt P07948); experiment: Binding affinity to Lyn in human K562 CML cells assessed as increase of fluorescence after 60 mins in presence of Bcr-Abl inhibitor Imatinib; type: cell-based
[6] = molecular target: Tyrosine-protein kinase Lyn (Homo sapiens) (UniProt P07948); experiment: Induction of Lyn phosphorylation in human K562 CML cells assessed as peptide substrate consumption at 25 uM after 10 mins; type: cell-based
[7] = molecular target: Tyrosine-protein kinase Lyn (Homo sapiens) (UniProt P07948); experiment: Induction of Lyn phosphorylation in human K562 CML cells assessed as peptide substrate consumption at 25 uM after 20 mins; type: cell-based
[8] = molecular target: Tyrosine-protein kinase Lyn (Homo sapiens) (UniProt P07948); experiment: Induction of Lyn phosphorylation in human K562 CML cells assessed as peptide substrate consumption at 25 uM after 40 mins; type: cell-based
[9] = molecular target: Tyrosine-protein kinase Lyn (Homo sapiens) (UniProt P07948); experiment: Induction of Lyn phosphorylation in human K562 CML cells assessed as peptide substrate consumption at 25 uM after 60 mins; type: cell-based
[10] = molecular target: Tyrosine-protein kinase Lyn (Homo sapiens) (UniProt P07948); experiment: Induction of Lyn phosphorylation in human K562 CML cells assessed as peptide substrate consumption at 25 uM after 10 mins in presence of Bcr-Abl inhibitor Imatinib; type: cell-based
[11] = molecular target: Tyrosine-protein kinase Lyn (Homo sapiens) (UniProt P07948); experiment: Induction of Lyn phosphorylation in human K562 CML cells assessed as peptide substrate consumption at 25 uM after 20 mins in presence of Bcr-Abl inhibitor Imatinib; type: cell-based
[12] = molecular target: Tyrosine-protein kinase Lyn (Homo sapiens) (UniProt P07948); experiment: Induction of Lyn phosphorylation in human K562 CML cells assessed as peptide substrate consumption at 25 uM after 40 mins in presence of Bcr-Abl inhibitor Imatinib; type: cell-based
[13] = molecular target: Tyrosine-protein kinase Lyn (Homo sapiens) (UniProt P07948); experiment: Induction of Lyn phosphorylation in human K562 CML cells assessed as peptide substrate consumption at 25 uM after 60 mins in presence of Bcr-Abl inhibitor Imatinib; type: cell-based

Chain of Tyrosine-protein kinase Lyn (Homo sapiens) (P07948 2-512 limits assumed): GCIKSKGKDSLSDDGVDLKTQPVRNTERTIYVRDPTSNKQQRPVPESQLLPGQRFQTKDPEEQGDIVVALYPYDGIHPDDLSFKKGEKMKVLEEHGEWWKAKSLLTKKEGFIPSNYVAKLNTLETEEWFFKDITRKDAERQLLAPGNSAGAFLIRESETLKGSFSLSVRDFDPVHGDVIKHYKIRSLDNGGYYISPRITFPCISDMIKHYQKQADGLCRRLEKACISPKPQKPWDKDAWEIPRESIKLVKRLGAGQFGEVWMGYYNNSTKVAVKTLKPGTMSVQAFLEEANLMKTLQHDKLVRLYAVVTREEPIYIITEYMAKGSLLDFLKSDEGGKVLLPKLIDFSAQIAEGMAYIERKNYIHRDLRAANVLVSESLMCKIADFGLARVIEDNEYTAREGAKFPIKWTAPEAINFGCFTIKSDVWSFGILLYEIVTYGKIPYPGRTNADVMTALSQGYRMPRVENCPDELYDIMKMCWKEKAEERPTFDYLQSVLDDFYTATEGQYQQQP

- fold change (FC) [1]: 0
SMILES: CC[C@H](C)[C@H](NC(=O)[C@H](CCC(=O)O)NC(=O)[C@H](CCC(=O)O)NC(=O)[C@H](CCC(=O)O)NC(=O)[C@H](C)N)C(=O)N[C@@H](Cc1ccc(O)cc1)C(=O)NCC(=O)N[C@@H](CCC(=O)O)C(=O)N[C@@H](Cc1cn(CCNS(=O)(=O)c2cccc3c(N(C)C)cccc23)nn1)C(=O)N[C@@H](CCC(=O)O)C(=O)N[C@@H](C)C(=O)N[C@@H](CCCCN)C(=O)N[C@@H](CCCCN)C(=O)N[C@@H](CCCCN)C(=O)N[C@@H](CCCCN)C(N)=O

- fold change (FC) [1]: 1.3
SMILES: CC[C@H](C)[C@H](NC(=O)[C@H](CCC(=O)O)NC(=O)[C@H](CCC(=O)O)NC(=O)[C@H](CCC(=O)O)NC(=O)[C@H](C)N)C(=O)N[C@@H](Cc1ccc(O)cc1)C(=O)NCC(=O)N[C@@H](CCC(=O)O)C(=O)N[C@@H](Cc1cn(Cc2cc(=O)oc3cc(N)ccc23)nn1)C(=O)N[C@@H](CCC(=O)O)C(=O)N[C@@H](C)C(=O)N[C@@H](CCCCN)C(=O)N[C@@H](CCCCN)C(=O)N[C@@H](CCCCN)C(=O)N[C@@H](CCCCN)C(N)=O

- fold change (FC) [1]: 1.3
SMILES: CC[C@H](C)[C@H](NC(=O)[C@H](CCC(=O)O)NC(=O)[C@H](CCC(=O)O)NC(=O)[C@H](CCC(=O)O)NC(=O)[C@H](C)N)C(=O)N[C@@H](Cc1ccc(O)cc1)C(=O)NCC(=O)N[C@@H](CCC(=O)O)C(=O)N[C@@H](Cc1cn(Cc2cc(=O)oc3cc(NC(C)=O)ccc23)nn1)C(=O)N[C@@H](CCC(=O)O)C(=O)N[C@@H](C)C(=O)N[C@@H](CCCCN)C(=O)N[C@@H](CCCCN)C(=O)N[C@@H](CCCCN)C(=O)N[C@@H](CCCCN)C(N)=O

- fold change (FC) [1]: 4
- fold change (FC) [2]: 4
- Activity [3]: tde
- Activity [4]: inactive
- Activity [5]: inactive
- Activity [6]: 1.35%
- Activity [7]: 1.67%
- Activity [8]: 2.01%
- Activity [9]: 4.24%
- Activity [10]: 0.18%
- Activity [11]: 0.25%
- Activity [12]: 0.33%
- Activity [13]: 0.41%
SMILES: CC[C@H](C)[C@H](NC(=O)[C@H](CCC(=O)O)NC(=O)[C@H](CCC(=O)O)NC(=O)[C@H](CCC(=O)O)NC(=O)[C@H](C)N)C(=O)N[C@@H](Cc1ccc(O)cc1)C(=O)NCC(=O)N[C@@H](CCC(=O)O)C(=O)N[C@@H](Cc1cn(-c2ccc3ccc4cccc5ccc2c3c45)nn1)C(=O)N[C@@H](CCC(=O)O)C(=O)N[C@@H](C)C(=O)N[C@@H](CCCCN)C(=O)N[C@@H](CCCCN)C(=O)N[C@@H](CCCCN)C(=O)N[C@@H](CCCCN)C(N)=O (H-AEEEIYGE[X1]EAKKKK-NH2)

- fold change (FC) [1]: 2.5
SMILES: CC[C@H](C)[C@H](NC(=O)[C@H](CCC(=O)O)NC(=O)[C@H](CCC(=O)O)NC(=O)[C@H](CCC(=O)O)NC(=O)[C@H](C)N)C(=O)N[C@@H](Cc1ccc(O)cc1)C(=O)NCC(=O)N[C@@H](CCC(=O)O)C(=O)N[C@@H](Cc1cn(-c2ccc3c4c(cccc24)C(=O)N(CC)C3=O)nn1)C(=O)N[C@@H](CCC(=O)O)C(=O)N[C@@H](C)C(=O)N[C@@H](CCCCN)C(=O)N[C@@H](CCCCN)C(=O)N[C@@H](CCCCN)C(=O)N[C@@H](CCCCN)C(N)=O (H-AEEEIYGE[X2]EAKKKK-NH2)

- fold change (FC) [1]: 0
SMILES: CC[C@H](C)[C@H](NC(=O)[C@H](CCC(=O)O)NC(=O)[C@H](CCC(=O)O)NC(=O)[C@H](CCC(=O)O)NC(=O)[C@H](C)N)C(=O)N[C@@H](Cc1ccc(O)cc1)C(=O)NCC(=O)N[C@@H](CCC(=O)O)C(=O)N[C@@H](Cc1cn(-c2cccc3ccccc23)nn1)C(=O)N[C@@H](CCC(=O)O)C(=O)N[C@@H](C)C(=O)N[C@@H](CCCCN)C(=O)N[C@@H](CCCCN)C(=O)N[C@@H](CCCCN)C(=O)N[C@@H](CCCCN)C(N)=O (H-AEEEIYGE[X3]EAKKKK-NH2)

- fold change (FC) [1]: 1.1
SMILES: CC[C@H](C)[C@H](NC(=O)[C@H](CCC(=O)O)NC(=O)[C@H](CCC(=O)O)NC(=O)[C@H](CCC(=O)O)NC(=O)[C@H](C)N)C(=O)N[C@@H](Cc1ccc(O)cc1)C(=O)NCC(=O)N[C@@H](CCC(=O)O)C(=O)N[C@@H](Cc1cn(-c2cc3ccc(O)cc3oc2=O)nn1)C(=O)N[C@@H](CCC(=O)O)C(=O)N[C@@H](C)C(=O)N[C@@H](CCCCN)C(=O)N[C@@H](CCCCN)C(=O)N[C@@H](CCCCN)C(=O)N[C@@H](CCCCN)C(N)=O (H-AEEEIYGE[X4]EAKKKK-NH2)

- fold change (FC) [1]: 0
SMILES: CC[C@H](C)[C@H](NC(=O)[C@H](CCC(=O)O)NC(=O)[C@H](CCC(=O)O)NC(=O)[C@H](CCC(=O)O)NC(=O)[C@H](C)N)C(=O)N[C@@H](Cc1ccc(O)cc1)C(=O)NCC(=O)N[C@@H](CCC(=O)O)C(=O)N[C@@H](Cc1cn(-c2ccc3c(C)cc(=O)[nH]c3c2)nn1)C(=O)N[C@@H](CCC(=O)O)C(=O)N[C@@H](C)C(=O)N[C@@H](CCCCN)C(=O)N[C@@H](CCCCN)C(=O)N[C@@H](CCCCN)C(=O)N[C@@H](CCCCN)C(N)=O (H-AEEEIYGE[X5]EAKKKK-NH2)
